This is an account of results in patent publication US10829473B2, “Modulators of the cystic fibrosis transmembrane conductance regulator protein and methods of use” (AbbVie Overseas S.Á.R.L., priority 2017, dated 2020).

Where two headings read alike, the source gives them in different places. Some results are limits rather than exact numbers.

The term EC50 denotes the concentration needed to bring the measured effect to its halfway point.

The target of the assay is T1, F508delCFTR (Homo sapiens, UniProt P13569, DEL508-508).
T1 construct: expressed in transfected cells; host or cells: CFBE41o- human lung derived epithelial cells (CFBE41o-F508delCFTR-HRP), doxycycline-inducible
Kind of assay: Cell Surface Expression-Horse Radish Peroxidase (CSE-HRP) Assay.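 On EC50 (with co-corrector): co-corrector chromenyl benzoic acid corrector at 2 or 3 µM.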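 On Maximum % activity (without co-corrector): % of on-plate positive control chromenyl benzoic acid corrector at 2 or 3 µM.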 Format: cell-based. To be noted: for Maximum % activity (with co-corrector) / Emax: maximum at any tested concentration; for Emax: read-out: Maximum % activity (without co-corrector). In a few lines:
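Corrector compounds were given as 8-point 3-fold series from 20 or 30 μM, with or without a 2 μM co-corrector, for 18-24 h at 33 °C. Surface HRP was read by luminol luminescence as % of positive control; variable-Hill-slope sigmoidal fitting gave EC50 from triplicate plates.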

The mark [1] stands for this setting: test compound alone, without co-corrector, read-out: EC50 (without co-corrector).
[2] abbreviates: with co-corrector, read-out: EC50 (with co-corrector).

T1 sequence (P13569 with tags, fused parts or gaps DEL508-508): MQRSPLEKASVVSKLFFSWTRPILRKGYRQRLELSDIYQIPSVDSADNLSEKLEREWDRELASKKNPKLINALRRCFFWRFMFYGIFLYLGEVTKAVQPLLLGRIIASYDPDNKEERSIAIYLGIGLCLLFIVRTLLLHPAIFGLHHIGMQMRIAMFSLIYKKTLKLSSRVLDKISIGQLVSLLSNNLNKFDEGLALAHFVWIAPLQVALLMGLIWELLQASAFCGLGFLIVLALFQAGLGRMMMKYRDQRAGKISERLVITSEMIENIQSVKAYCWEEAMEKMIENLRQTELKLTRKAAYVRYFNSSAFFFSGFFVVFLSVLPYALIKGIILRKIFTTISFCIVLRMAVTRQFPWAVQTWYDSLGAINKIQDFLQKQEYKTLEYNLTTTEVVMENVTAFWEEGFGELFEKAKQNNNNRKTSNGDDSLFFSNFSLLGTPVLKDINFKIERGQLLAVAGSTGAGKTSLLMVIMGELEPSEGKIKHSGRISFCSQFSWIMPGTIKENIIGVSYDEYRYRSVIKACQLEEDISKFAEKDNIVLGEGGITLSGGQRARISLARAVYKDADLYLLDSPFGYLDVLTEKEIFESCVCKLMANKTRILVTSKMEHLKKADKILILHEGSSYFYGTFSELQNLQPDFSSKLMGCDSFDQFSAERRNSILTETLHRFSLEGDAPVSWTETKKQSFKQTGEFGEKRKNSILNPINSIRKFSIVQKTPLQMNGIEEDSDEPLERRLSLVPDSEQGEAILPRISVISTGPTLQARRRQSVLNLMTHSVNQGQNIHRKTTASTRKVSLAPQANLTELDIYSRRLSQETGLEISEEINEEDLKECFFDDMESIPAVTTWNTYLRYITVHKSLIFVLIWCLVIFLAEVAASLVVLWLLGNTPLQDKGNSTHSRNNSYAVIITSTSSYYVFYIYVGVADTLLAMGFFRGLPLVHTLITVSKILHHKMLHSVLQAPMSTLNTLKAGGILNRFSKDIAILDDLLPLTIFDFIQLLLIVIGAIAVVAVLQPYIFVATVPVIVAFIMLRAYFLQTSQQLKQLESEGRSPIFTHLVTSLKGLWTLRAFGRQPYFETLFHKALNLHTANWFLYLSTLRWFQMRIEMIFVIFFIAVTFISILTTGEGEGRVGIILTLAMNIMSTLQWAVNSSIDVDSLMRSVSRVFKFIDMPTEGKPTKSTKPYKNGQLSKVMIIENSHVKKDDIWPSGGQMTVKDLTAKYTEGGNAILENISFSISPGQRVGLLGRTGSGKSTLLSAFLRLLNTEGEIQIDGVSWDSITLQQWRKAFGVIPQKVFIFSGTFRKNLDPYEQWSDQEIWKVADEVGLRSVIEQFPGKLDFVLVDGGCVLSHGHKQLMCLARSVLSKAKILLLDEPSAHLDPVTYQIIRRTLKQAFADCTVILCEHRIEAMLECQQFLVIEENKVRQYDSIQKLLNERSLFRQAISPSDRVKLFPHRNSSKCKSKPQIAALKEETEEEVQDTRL

Regarding `O=C(CCc1ccccc1)N1CCC(S(=O)(=O)NC(=O)C2(c3ccc(Cl)cc3Cl)CC2)CC1` [Example III-79, 1-(2,4-dichlorophenyl)-N-[1-(3-phenylpropanoyl)piperidine-4-sulfonyl]cyclopropane-1-carboxamide], the 50% effective concentration (EC50) was over 10 µM under setting [1] and 3 to 10 µM under setting [2]. In addition, the “Maximum % activity (with co-corrector)” value (with co-corrector) is on record as “+ (<150)”. Where the note is “without co-corrector”, the Emax was under 50%.
For the compound `CC(C)(C)OC(=O)N1CCC(S(=O)(=O)NC(=O)C2(c3ccc(Cl)cc3Cl)CC2)CC1` [Example III-80, tert-butyl 4-{[1-(2,4-dichlorophenyl)cyclopropane-1-carbonyl]sulfamoyl}piperidine-1-carboxylate], the EC50 by setting is: under setting [1], over 10 µM; under setting [2], over 10 µM. For the same compound, the “Maximum % activity (with co-corrector)” value (with co-corrector) was “+ (<150)”. The Emax (without co-corrector) was under 50%.
Regarding `COc1cccc(C2(C(=O)NS(=O)(=O)c3ccccc3C)CCOCC2)c1` [Example III-81, 4-(3-methoxyphenyl)-N-(2-methylbenzene-1-sulfonyl)oxane-4-carboxamide], the EC50 by setting is: under setting [1], over 10 µM; under setting [2], over 10 µM. Besides, the “Maximum % activity (with co-corrector)” value (with co-corrector) is recorded as “+ (<150)”. In addition, the Emax (without co-corrector) was under 50%.
Take `Cc1cccc(C2(C(=O)NS(=O)(=O)c3ccccc3C)CCOCC2)c1` [Example III-82, N-(2-methylbenzene-1-sulfonyl)-4-(3-methylphenyl)oxane-4-carboxamide]: the EC50 was over 10 µM under setting [1] and over 10 µM under setting [2]. Moreover, the “Maximum % activity (with co-corrector)” value (with co-corrector) is “+ (<150)”. The Emax (without co-corrector) was under 50%.
Turning to `Cc1ccccc1S(=O)(=O)NC(=O)C1(c2cccc(Cl)c2)CCCC1` [Example III-83, 1-(3-chlorophenyl)-N-(2-methylbenzene-1-sulfonyl)cyclopentane-1-carboxamide], the EC50 by setting is: under setting [1], over 10 µM; under setting [2], over 10 µM. Also, the “Maximum % activity (with co-corrector)” value (with co-corrector) was “++ (≥150 and <350)”. Moreover, the Emax (without co-corrector) was under 50%.
With `Cc1ccc(S(=O)(=O)NC(=O)C2(c3cccc(Cl)c3)CC2)nc1` [Example III-84, 1-(3-chlorophenyl)-N-(5-methylpyridine-2-sulfonyl)cyclopropane-1-carboxamide], the EC50 reads like this: under setting [1], over 10 µM; under setting [2], over 10 µM. Moreover, the “Maximum % activity (with co-corrector)” value (with co-corrector) is listed as “+ (<150)”. Also, the Emax (without co-corrector) is under 50%.
Consider `COc1ccccc1C1(C(=O)NS(=O)(=O)c2ccccc2C)CC1` [Example III-85, 1-(2-methoxyphenyl)-N-(2-methylbenzene-1-sulfonyl)cyclopropane-1-carboxamide], for which the EC50 is 3 to 10 µM under setting [1] and 3 to 10 µM under setting [2]. For the same compound, the “Maximum % activity (with co-corrector)” value (with co-corrector) is given as “+++ (≥350)”. In addition, the Emax (without co-corrector) lay in the range of 50 to 150%.
For `Cc1ccccc1S(=O)(=O)NC(=O)C1(c2ccc3c(c2)OCO3)CC1` [Example III-86, 1-(2H-1,3-benzodioxol-5-yl)-N-(2-methylbenzene-1-sulfonyl)cyclopropane-1-carboxamide], the EC50 reads like this: under setting [1], 3 to 10 µM; under setting [2], 3 to 10 µM. Besides, the “Maximum % activity (with co-corrector)” value (with co-corrector) was “++ (≥150 and <350)”. Besides, the Emax (without co-corrector) is under 50%.
Take `Cc1ccccc1S(=O)(=O)NC(=O)C1(c2ccc(Cl)cc2Cl)CC1` [Example III-87, 1-(2,4-dichlorophenyl)-N-(2-methylbenzene-1-sulfonyl)cyclopropane-1-carboxamide]: the concentration for a half-maximal effect (EC50) was in the range of 3 to 10 µM under setting [1] and 3 to 10 µM under setting [2]. The “Maximum % activity (with co-corrector)” value (with co-corrector) was “+++ (≥350)”. The Emax (without co-corrector) was 50 to 150%.
Regarding `Cc1ccccc1S(=O)(=O)NC(=O)C1(c2ccc(Cl)cc2)CC1` [Example III-88, 1-(4-chlorophenyl)-N-(2-methylbenzene-1-sulfonyl)cyclopropane-1-carboxamide], the EC50 by setting is: under setting [1], 3 to 10 µM; under setting [2], 3 to 10 µM. Moreover, the “Maximum % activity (with co-corrector)” value (with co-corrector) was “++ (≥150 and <350)”. Also, the Emax (without co-corrector) was under 50%.
Turning to `CC(C)(C)OC(=O)N1CCC(C(=O)NS(=O)(=O)c2cccc3ccccc23)(c2ccc(F)cc2)CC1` [Example III-89, tert-butyl 4-(4-fluorophenyl)-4-[(naphthalene-1-sulfonyl)carbamoyl]piperidine-1-carboxylate], the EC50 runs as follows: under setting [1], 3 to 10 µM; under setting [2], under 3 µM. Moreover, the “Maximum % activity (with co-corrector)” value (with co-corrector) was “++ (≥150 and <350)”. In addition, under “without co-corrector”, the Emax is under 50%.
Consider `COc1ccc(C2(C(=O)NS(=O)(=O)c3cccc4ccccc34)CCCC2)cc1OC` [Example III-90, 1-(3,4-dimethoxyphenyl)-N-(naphthalene-1-sulfonyl)cyclopentane-1-carboxamide], for which the EC50 runs as follows: under setting [1], over 10 µM; under setting [2], over 10 µM. For the setting “with co-corrector”, the “Maximum % activity (with co-corrector)” value is on record as “+ (<150)”. Also, the Emax (without co-corrector) was under 50%.
For the compound `O=C(NS(=O)(=O)c1cccc2ccccc12)C1(c2ccc3c(c2)OC(F)(F)O3)CC1` [Example III-91, 1-(2,2-difluoro-2H-1,3-benzodioxol-5-yl)-N-(naphthalene-1-sulfonyl)cyclopropane-1-carboxamide], the EC50 is, setting by setting: under setting [1], over 10 µM; under setting [2], 3 to 10 µM. In addition, the “Maximum % activity (with co-corrector)” value (with co-corrector) was “+++ (≥350)”. Further, the Emax (without co-corrector) was over 150%.
Turning to `O=C(NS(=O)(=O)c1cccc2ccccc12)C1(c2cccc(Br)c2)CC1` [Example III-92, 1-(3-bromophenyl)-N-(naphthalene-1-sulfonyl)cyclopropane-1-carboxamide], the EC50 reads like this: under setting [1], 3 to 10 µM; under setting [2], 3 to 10 µM. Besides, the “Maximum % activity (with co-corrector)” value (with co-corrector) is “+++ (≥350)”. Besides, the Emax (without co-corrector) is over 150%.
Regarding `O=C(NS(=O)(=O)c1cccc2ncccc12)C1(c2cccc(Br)c2)CC1` [Example III-93, 1-(3-bromophenyl)-N-(quinoline-5-sulfonyl)cyclopropane-1-carboxamide], the half-maximal effective concentration (EC50) lay in the range of 3 to 10 µM under setting [1] and 3 to 10 µM under setting [2]. The “Maximum % activity (with co-corrector)” value (with co-corrector) is “+++ (≥350)”. Moreover, the Emax (without co-corrector) is over 150%.
With `COc1ccc(C)c(C2(C(=O)NS(=O)(=O)c3cccc4ncccc34)CCN(C)CC2)c1` [Example III-94, 4-(5-methoxy-2-methylphenyl)-1-methyl-N-(quinoline-5-sulfonyl)piperidine-4-carboxamide], the EC50 under setting [1] is over 10 µM and the EC50 under setting [2] is over 10 µM. Further, where the note is “with co-corrector”, the “Maximum % activity (with co-corrector)” value was “+ (<150)”. Also, the Emax (without co-corrector) was under 50%.
With `COc1ncc(C(F)(F)F)cc1C1(C(=O)NS(=O)(=O)c2cccn3nccc23)CC1` [Example III-95, 1-[2-methoxy-5-(trifluoromethyl)pyridin-3-yl]-N-(pyrazolo[1,5-a]pyridine-4-sulfonyl)cyclopropane-1-carboxamide], the EC50 is, setting by setting: under setting [1], 3 to 10 µM; under setting [2], 3 to 10 µM. Moreover, under “with co-corrector”, the “Maximum % activity (with co-corrector)” value was “+++ (≥350)”. Besides, the Emax (without co-corrector) was over 150%.
With `COc1ncc(C(F)(F)F)cc1C1(C(=O)NS(=O)(=O)c2cccc3ncn(C)c23)CC1` [Example III-96, 1-[2-methoxy-5-(trifluoromethyl)pyridin-3-yl]-N-(1-methyl-1H-benzimidazole-7-sulfonyl)cyclopropane-1-carboxamide], the EC50 under setting [1] lay in the range of 3 to 10 µM and the EC50 under setting [2] was in the range of 3 to 10 µM. The “Maximum % activity (with co-corrector)” value (with co-corrector) was “+++ (≥350)”. The Emax (without co-corrector) is 50 to 150%.
As to `COc1ncc(C(F)(F)F)cc1C1(C(=O)NS(=O)(=O)c2cccc3cnn(C)c23)CC1` [Example III-97, 1-[2-methoxy-5-(trifluoromethyl)pyridin-3-yl]-N-(1-methyl-1H-indazole-7-sulfonyl)cyclopropane-1-carboxamide], the EC50 runs as follows: under setting [1], 3 to 10 µM; under setting [2], 3 to 10 µM. Moreover, the “Maximum % activity (with co-corrector)” value (with co-corrector) is “+++ (≥350)”. Besides, under “without co-corrector”, the Emax is over 150%.
Consider `COc1ncc(C(F)(F)F)cc1C1(C(=O)NS(=O)(=O)c2cccc3[nH]ncc23)CC1` [Example III-98, N-(1H-indazole-4-sulfonyl)-1-[2-methoxy-5-(trifluoromethyl)pyridin-3-yl]cyclopropane-1-carboxamide], for which the EC50 was 3 to 10 µM under setting [1] and 3 to 10 µM under setting [2]. In addition, the “Maximum % activity (with co-corrector)” value (with co-corrector) is listed as “+++ (≥350)”. Moreover, the Emax (without co-corrector) is over 150%.
As to `COc1ccc(C#N)cc1C1(C(=O)NS(=O)(=O)c2cccc3ncccc23)CC1` [Example III-99, 1-(5-cyano-2-methoxyphenyl)-N-(quinoline-5-sulfonyl)cyclopropane-1-carboxamide], the EC50 lay within 3 to 10 µM under setting [1] and 3 to 10 µM under setting [2]. Where the note is “with co-corrector”, the “Maximum % activity (with co-corrector)” value is reported as “+++ (≥350)”. The Emax (without co-corrector) lay within 50 to 150%.
`COc1ccc(C#N)cc1C1(C(=O)NS(=O)(=O)c2cccc3c2CCCN3)CC1` [Example III-100, 1-(5-cyano-2-methoxyphenyl)-N-(1,2,3,4-tetrahydroquinoline-5-sulfonyl)cyclopropane-1-carboxamide]: the EC50 is, setting by setting: under setting [1], 3 to 10 µM; under setting [2], 3 to 10 µM. Also, the “Maximum % activity (with co-corrector)” value (with co-corrector) is recorded as “+++ (≥350)”. Moreover, the Emax (without co-corrector) was over 150%.
Turning to `COc1ccc(C23CC(C2)C3)cc1C1(C(=O)NS(=O)(=O)c2cccc3c2CCCN3)CC1` [Example III-101, 1-[5-(bicyclo[1.1.1]pentan-1-yl)-2-methoxyphenyl]-N-(1,2,3,4-tetrahydroquinoline-5-sulfonyl)cyclopropane-1-carboxamide], the EC50 runs as follows: under setting [1], under 3 µM; under setting [2], under 3 µM. The “Maximum % activity (with co-corrector)” value (with co-corrector) was “+++ (≥350)”. Also, the Emax (without co-corrector) is over 150%.
Turning to `COc1cccc(C)c1C1(C(=O)NS(=O)(=O)c2cccc3c2ccn3C)CC1` [Example III-102], the EC50 was in the range of 3 to 10 µM under setting [1] and 3 to 10 µM under setting [2]. The “Maximum % activity (with co-corrector)” value (with co-corrector) was “+++ (≥350)”. Moreover, the Emax (without co-corrector) is over 150%.
